The values below come from publication PMC7948456, “Kinetics of cytochrome P450 3A4 inhibition by heterocyclic drugs defines a general sequential multistep binding process” (The Journal of Biological Chemistry, 2020).

Data set [1] deals with T1, P450 3A4 (Homo sapiens, UniProt P08684, form not given). Nature of the data set: in vitro. As to conditions: P450 3A4 reconstituted with cholate/phospholipid mixture, probe 7-OBz quinoline (7-benzoyl quinoline) O-debenzylation, 20 μM.
Data set [2] concerns the target T1, P450 3A4. The data set can be described thus: in vitro. As to conditions: P450 3A4 reconstituted with cholate/phospholipid mixture, probe testosterone 6β-hydroxylation, 25 μM.
The target of data set [3] is T2, P450 3A4 (Homo sapiens, UniProt P08684). Nature of the data set: Inhibitor-binding kinetics (stopped-flow absorbance, SVD analysis). As to conditions: P450 3A4 2 μM.
Text: Equal volumes of buffered solutions of P450 3A4 and ligand were mixed, with a nominal dead time of 2 ms. Data were collected in the Show Pre-trigger Mode, with a short amount of data from the previous run (completed reaction) shown prior to mixing. […] From the accumulated spectra from each individual experiment (5–10 shots per concentration), generally the A420 data were subtracted from the A390 data points or A390 data were subtracted from the A425 data points, and the difference (ΔA390 − A420 or ΔA425 − A390 versus time) traces were averaged using the OLIS GlobalWorks software and fit to first-order fits (or used in SVD analysis; Figs. 9 and S7–S10).
The target of data set [4] is T2, P450 3A4. As to conditions: equimolar inhibitor (50 nM), 160 μM 7-OBz quinoline added, 23 °C.
The target in data set [5] is T2, P450 3A4. Particulars: inhibitor 0.02 μM.
Experimental: Assays for the kinetics of inhibition were done using an OLIS RSM-1000 stopped-flow instrument (On-Line Instrument Systems) in the fluorescence mode (150 W xenon lamp), with the excitation monochromator set at 410 nm and using a >515 nm Oriel long-pass filter (Newport) with the sample photomultiplier tube. The slit widths were 6.32 mm, and the sample and reference voltages of the photomultiplier tubes were 700 and 350 V, respectively. Reactions were done at 23 °C for 180 s.
One syringe contained the P450 3A4 system (100 nM P450 3A4, 200 nM POR, and 100 nM cytochrome b5) along with the other components of a “5×” mixture (potassium Hepes (pH 7.4), reduced glutathione, sodium cholate, and phospholipid mixture) combined with the 5× buffer mixture (Hepes, MgCl2, and reduced glutathione) ([42]), plus NADPH and the inhibitor compound. Fluorescence data were collected for 3 min (at 23 °C) and moved to Excel, Prism, and KinTek Explorer programs for analysis.
The target of data set [6] is T2, P450 3A4. As to conditions: P450 enzyme system + NADPH, UPLC-MS.
Setting [7] is: inhibitor 15 μM, three-species 1→2→3 model.

Broadly, the IC50 is the concentration at which inhibition is half-maximal.

T1 sequence (P08684 13-503): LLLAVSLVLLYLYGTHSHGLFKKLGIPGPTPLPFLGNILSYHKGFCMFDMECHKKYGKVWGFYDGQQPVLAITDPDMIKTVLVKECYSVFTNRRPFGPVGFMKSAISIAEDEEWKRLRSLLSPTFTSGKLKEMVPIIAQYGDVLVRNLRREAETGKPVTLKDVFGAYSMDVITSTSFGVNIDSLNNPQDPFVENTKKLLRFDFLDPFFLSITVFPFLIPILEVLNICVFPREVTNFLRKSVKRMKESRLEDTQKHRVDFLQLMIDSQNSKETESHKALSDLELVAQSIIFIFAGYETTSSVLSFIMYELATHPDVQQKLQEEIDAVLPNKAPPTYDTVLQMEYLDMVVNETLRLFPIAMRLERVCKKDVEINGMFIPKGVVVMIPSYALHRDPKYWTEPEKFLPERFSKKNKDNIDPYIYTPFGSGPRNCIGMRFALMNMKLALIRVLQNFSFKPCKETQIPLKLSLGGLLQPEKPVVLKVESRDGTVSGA
T1 sequence (P00388 2-678 partner): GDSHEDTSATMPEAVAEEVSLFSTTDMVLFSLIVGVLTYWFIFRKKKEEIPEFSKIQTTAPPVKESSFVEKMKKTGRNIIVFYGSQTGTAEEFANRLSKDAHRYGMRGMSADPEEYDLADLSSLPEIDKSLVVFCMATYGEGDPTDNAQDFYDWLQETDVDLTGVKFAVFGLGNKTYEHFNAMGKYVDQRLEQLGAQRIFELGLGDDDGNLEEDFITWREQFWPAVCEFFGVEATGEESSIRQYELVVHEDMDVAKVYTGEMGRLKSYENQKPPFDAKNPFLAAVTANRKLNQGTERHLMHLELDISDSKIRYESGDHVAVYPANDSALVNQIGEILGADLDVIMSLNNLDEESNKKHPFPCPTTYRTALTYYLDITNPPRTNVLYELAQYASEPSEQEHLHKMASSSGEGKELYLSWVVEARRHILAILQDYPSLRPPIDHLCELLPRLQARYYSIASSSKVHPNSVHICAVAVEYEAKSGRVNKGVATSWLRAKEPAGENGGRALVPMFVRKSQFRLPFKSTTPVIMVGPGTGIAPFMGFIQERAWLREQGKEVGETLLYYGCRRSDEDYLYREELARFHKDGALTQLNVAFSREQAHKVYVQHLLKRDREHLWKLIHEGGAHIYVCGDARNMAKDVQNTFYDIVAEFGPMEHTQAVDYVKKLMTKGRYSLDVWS
T1 sequence (P00167 2-134 partner): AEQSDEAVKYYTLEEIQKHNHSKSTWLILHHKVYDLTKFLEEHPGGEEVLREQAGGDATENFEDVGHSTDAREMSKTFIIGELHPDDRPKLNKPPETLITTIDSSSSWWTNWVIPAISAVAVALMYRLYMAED
T2 sequence (P08684 13-503): as the sequence (P08684 13-503) above
T2 sequence (P00388 2-678 partner): as the sequence (P00388 2-678 partner) above
T2 sequence (P00167 2-134 partner): as the sequence (P00167 2-134 partner) above

As for `CCC(C)n1ncn(-c2ccc(N3CCN(c4ccc(OCC5COC(Cn6cncn6)(c6ccc(Cl)cc6Cl)O5)cc4)CC3)cc2)c1=O` (stereo not shown) [Itraconazole], the IC50 at 8 min on P450 3A4 [1] was found to be 2020 nM. The IC50 at 15 min at P450 3A4 [2] was determined as 1490 nM.

With `Clc1ccccc1C(c1ccccc1)(c1ccccc1)n1ccnc1` [Clotrimazole], at P450 3A4 [3] (setting [7]), the “Spectral binding (SVD) k1” value is 0.092 ± 0.01 s and the “Spectral binding (SVD) k2” value is 0.016 ± 0.005 s⁻¹. Besides, on P450 3A4 [3] (ligand 4 μM final), the “kobs, initial rate of binding (ΔA390 − A425)” value stood at 235 s⁻¹. Further, on P450 3A4 [4], the “lag phase in recovery of catalytic activity” value is on record as approximately 45 s. The “Onset of 7-OBz quinoline O-debenzylation inhibition, Rate (k1)” value at P450 3A4 [5] stood at 0.39 ± 0.03 s⁻¹. The “substrate for P450 3A4 (product formation)” value at P450 3A4 [6] was “is a substrate as well as an inhibitor of P450 3A4”. For the same compound, the IC50 at 8 min on P450 3A4 [1] came to 110 nM. In addition, the IC50 at 15 min on P450 3A4 [2] turned out to be 110 nM.
